The nature of data set [1]: clinical. Conditions: human.
The target of data set [2] is T1, Prolyl endopeptidase FAP (Homo sapiens, UniProt Q12884).
T1 sequence (Q12884 whole entry): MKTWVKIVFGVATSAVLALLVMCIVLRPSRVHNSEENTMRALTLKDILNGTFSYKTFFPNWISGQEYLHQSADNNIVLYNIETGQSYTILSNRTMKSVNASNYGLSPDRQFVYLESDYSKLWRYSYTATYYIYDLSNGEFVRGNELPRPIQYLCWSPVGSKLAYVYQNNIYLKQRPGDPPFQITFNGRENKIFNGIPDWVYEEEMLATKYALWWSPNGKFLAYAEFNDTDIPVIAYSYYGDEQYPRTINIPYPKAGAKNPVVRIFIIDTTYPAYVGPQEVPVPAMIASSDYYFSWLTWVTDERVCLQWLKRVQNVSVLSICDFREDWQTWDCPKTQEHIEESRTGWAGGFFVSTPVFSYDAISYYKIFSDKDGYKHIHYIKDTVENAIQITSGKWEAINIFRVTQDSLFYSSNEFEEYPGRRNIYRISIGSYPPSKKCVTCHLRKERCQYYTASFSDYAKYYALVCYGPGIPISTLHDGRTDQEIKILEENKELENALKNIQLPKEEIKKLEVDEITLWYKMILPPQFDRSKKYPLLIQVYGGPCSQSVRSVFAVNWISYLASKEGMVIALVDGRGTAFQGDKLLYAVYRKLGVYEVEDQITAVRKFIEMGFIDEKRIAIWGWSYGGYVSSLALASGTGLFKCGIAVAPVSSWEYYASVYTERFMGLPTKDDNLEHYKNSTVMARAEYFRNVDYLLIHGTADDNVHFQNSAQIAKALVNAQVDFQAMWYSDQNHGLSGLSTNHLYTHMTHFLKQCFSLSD
The data set is described as follows: Inhibition of recombinant human FAP extracted from S2 cells using fluorogenic FAP as specific substrate measured after 10 mins incubation by 7-amino-4-methylcoumarin in assay.

In ChEMBL document CHEMBL6087393, “Sensitive quantification of fibroblast activation protein and high-throughput screening for inhibition by FDA-approved compounds” (Eur J Med Chem, 2024) one finds Cmax and IC50 data, which are given here for four compounds.

For orientation: Cmax means the peak of the concentration-time curve. What is called IC50 is the concentration at which inhibition is half-maximal.

SMILES strings stand for the structures.

Compound `Cc1cc2ncc(C(=O)NCC(C)(C)NCC(=O)N3CCC[C@H]3C#N)cn2n1` [ANAGLIPTIN] registered a Cmax in data set [1] of 1200 nM.
The compound `CC#CCn1c(N2CCC[C@@H](N)C2)nc2c1c(=O)n(Cc1nc(C)c3ccccc3n1)c(=O)n2C` [LINAGLIPTIN] returned a Cmax in data set [1] of 12 nM.
`Nc1ncnc2c1ncn2CCOCP(=O)(O)O` [ADEFOVIR]: the IC50 in data set [2] was above 100 µM.
Take `C[C@H](Cn1cnc2c(N)ncnc21)OCP(=O)(O)O` [TENOFOVIR ANHYDROUS]: in data set [2], the IC50 is above 100 µM.
